From PubChem BioAssay AID248 (DTP/NCI, 2004) come the findings set out here.

This experiment has as its system L1210 leukemia ip in BDF1 mice, survival T/C. Put plainly: NCI In Vivo Anticancer Drug Screen. Data for tumor model L1210 Leukemia (intraperitoneal) in B6D2F1 (BDF1) mice. The following applies: endpoint: mean survival time, higher = longer survival. Summed up: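 Value reflects the ratio of survival in compound-treated mice to survival in vehicle-treated controls, with both groups carrying the same transplanted tumor.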

The mark [1] stands for this setting: dose: 100.0 mg/kg/injection, schedule: Q01DX009 (ip), vehicle: saline with Tween-80.
The mark [2] stands for this setting: dose: 200.0 mg/kg/injection, schedule: Q01DX009 (ip), vehicle: saline with Tween-80.
Where [3] appears, read: dose: 100.0 mg/kg/injection, schedule: Q04DX003 (ip), vehicle: saline.
The mark [4] stands for this setting: dose: 200.0 mg/kg/injection, schedule: Q04DX003 (ip), vehicle: saline.
Where [5] appears, read: dose: 400.0 mg/kg/injection, schedule: Q04DX003 (ip), vehicle: saline.
The mark [6] stands for this setting: dose: 100.0 mg/kg/injection, schedule: Q01DX009 (ip), vehicle: Klucel (hydroxypropylcellulose) (HPC).
Where [7] appears, read: dose: 200.0 mg/kg/injection, schedule: Q01DX009 (ip), vehicle: Klucel (hydroxypropylcellulose) (HPC).
Where [8] appears, read: dose: 400.0 mg/kg/injection, schedule: Q01DX009 (ip), vehicle: Klucel (hydroxypropylcellulose) (HPC).
The mark [9] stands for this setting: dose: 100.0 mg/kg/injection, schedule: Q04DX003 (ip), vehicle: Klucel (hydroxypropylcellulose) (HPC).
The mark [10] stands for this setting: dose: 200.0 mg/kg/injection, schedule: Q04DX003 (ip), vehicle: Klucel (hydroxypropylcellulose) (HPC).
[11] abbreviates: dose: 400.0 mg/kg/injection, schedule: Q04DX003 (ip), vehicle: Klucel (hydroxypropylcellulose) (HPC).
Where [12] appears, read: dose: 400.0 mg/kg/injection, schedule: Q01DX009 (ip), vehicle: saline with Tween-80.
Setting [13] is: dose: 25.0 mg/kg/injection, schedule: Q01DX009 (ip), vehicle: Klucel (hydroxypropylcellulose) (HPC).
The mark [14] stands for this setting: dose: 50.0 mg/kg/injection, schedule: Q01DX009 (ip), vehicle: Klucel (hydroxypropylcellulose) (HPC).
Setting [15] is: dose: 100.0 mg/kg/injection, schedule: Q04DX003 (ip), vehicle: saline with Tween-80.
[16] abbreviates: dose: 100.0 mg/kg/injection, schedule: Q01DX001 (ip), vehicle: saline.
[17] abbreviates: dose: 200.0 mg/kg/injection, schedule: Q01DX001 (ip), vehicle: saline.
[18] abbreviates: dose: 400.0 mg/kg/injection, schedule: Q01DX001 (ip), vehicle: saline.

Values joined by “and” are separate entries in the source; they are usually repeats but may differ in a detail not shown here. Identical values can stand only once. Inconclusive results and toxic doses are left out.

Consider `O=C(CCCCl)Oc1ccccc1`, for which the T/C is, setting by setting: under setting [1], 103 % of control; under setting [2], 98 % of control.
Consider `NC(=O)NOCC(N)C(=O)O` (centres undefined), for which the T/C is, setting by setting: under setting [3], 102 % of control; under setting [4], 102 % of control; under setting [5], 97 % of control.
`C/C(=N\N=C(/C)c1ccc(C)cc1C)c1ccc(C)cc1C`: the T/C was 98 % of control (dose: 100.0 mg/kg/injection, schedule: Q04DX002 (ip), vehicle: saline with Tween-80); 95 % of control (dose: 200.0 mg/kg/injection, schedule: Q04DX002 (ip), vehicle: saline with Tween-80); 103 % of control (dose: 400.0 mg/kg/injection, schedule: Q04DX002 (ip), vehicle: saline with Tween-80).
As for `c1ccc(-c2n[nH]c(-c3ccccn3)n2)nc1`, the T/C was 97 % of control (dose: 6.25 mg/kg/injection, schedule: Q01DX009 (ip), vehicle: Klucel (hydroxypropylcellulose) (HPC)) and 112 % of control (dose: 12.5 mg/kg/injection, schedule: Q01DX009 (ip), vehicle: Klucel (hydroxypropylcellulose) (HPC)).
On to `COc1ccc(/C=N/NC(=O)C(O)c2ccccc2)cc1` (centres undefined), for which the T/C is, setting by setting: under setting [6], 92 % of control; under setting [7], 99 % of control; under setting [8], 86 % of control.
For `O=c1cc(-c2ccccc2)nc2c(Cl)cc(Cl)cn12`, the T/C is, setting by setting: (dose: 100.0 mg/kg/injection, schedule: Q04DX003 (ip), vehicle: acetone) 95 % of control; (dose: 200.0 mg/kg/injection, schedule: Q04DX003 (ip), vehicle: acetone) 104 % of control; (dose: 400.0 mg/kg/injection, schedule: Q04DX003 (ip), vehicle: acetone) 96 % of control.
As to `CCOC(=O)Oc1c(OC)cc(C(=O)O[C@@H]2C[C@@H]3CN4CCc5c([nH]c6cc(OC)ccc56)[C@H]4C[C@@H]3[C@H](C(=O)OC)[C@H]2OC)cc1OC`, the T/C (dose: 25.0 mg/kg/injection, schedule: Q04DX003 (ip), vehicle: Klucel (hydroxypropylcellulose) (HPC)) is 101 % of control; the T/C (dose: 50.0 mg/kg/injection, schedule: Q04DX003 (ip), vehicle: Klucel (hydroxypropylcellulose) (HPC)) was 106 % of control; the T/C under setting [9] was 95 % of control; the T/C under setting [10] is 98 % of control.
Regarding `COc1ccc(C2CCc3cc4c(cc3/C2=N/OC(C)=O)OCO4)cc1OC` (centres undefined), the T/C is 105 % of control under setting [6]; 102 % of control under setting [9]; 97 % of control under setting [7]; 101 % of control under setting [10]; 92 % of control under setting [8]; 101 % of control under setting [11].
Take `COc1ccccc1-n1c(=O)c(N=Nc2ccc(Br)cc2)c(O)n(-c2ccccc2Cl)c1=S`: the T/C reads like this: (dose: 37.5 mg/kg/injection, schedule: Q01DX001 (ip), vehicle: Klucel (hydroxypropylcellulose) (HPC)) 107 % of control; (dose: 75.0 mg/kg/injection, schedule: Q01DX001 (ip), vehicle: Klucel (hydroxypropylcellulose) (HPC)) 116 % of control; (dose: 150.0 mg/kg/injection, schedule: Q01DX001 (ip), vehicle: Klucel (hydroxypropylcellulose) (HPC)) 98 % of control.
For the compound `Cc1cn2c(nc1=O)OC1CC2OC1CO` (centres undefined), the T/C (dose: 100.0 mg/kg/injection, schedule: Q01DX005 (ip), vehicle: saline) is 122 % of control and the T/C (dose: 200.0 mg/kg/injection, schedule: Q01DX005 (ip), vehicle: saline) was 152 % of control.
On to `COc1cc(NC(=O)Oc2ccc([N+](=O)[O-])cc2)ccc1S(=O)(=O)F`, for which the T/C is, setting by setting: under setting [1], 94 % of control; under setting [2], 103 % of control; under setting [12], 103 % of control.
As to `COc1cc(/C=N/Nc2cc(=O)[nH]c(N)n2)cc(OC)c1OC`, the T/C was 98 % of control under setting [9], 100 % of control under setting [10] and 100 % of control under setting [11].
`CN(C)c1ccc(/C=C/c2cnccn2)cc1`: the T/C runs as follows: under setting [13], 107 % of control; under setting [9], 94 % of control; under setting [10], 93 % of control.
For `O=C(O)/C=C/C(=O)Nc1ccc([N+](=O)[O-])c(C(F)(F)F)c1`, the T/C reads like this: under setting [6], 107 % of control; under setting [7], 112 % of control.
As for `COc1ccccc1NC(=O)NCCN1CCCC1`, the T/C under setting [6] is 98 % of control and the T/C under setting [7] is 98 % of control.
On to `CCCOc1ccc(-c2nc(-c3ccc(N=Cc4ccc(N(CCOS(C)(=O)=O)CCOS(C)(=O)=O)cc4C)cc3)cs2)cc1`, for which the T/C was 114 % of control under setting [13]; 109 % of control under setting [14]; 106 % of control (dose: 75.0 mg/kg/injection, schedule: Q01DX009 (ip), vehicle: Klucel (hydroxypropylcellulose) (HPC)); 94 % of control under setting [6].
As for `CCNC(=S)Nc1ccc(Cl)cc1`, the T/C runs as follows: (dose: 25.0 mg/kg/injection, schedule: Q01DX009 (ip), vehicle: saline with Tween-80) 93 % of control; (dose: 50.0 mg/kg/injection, schedule: Q01DX009 (ip), vehicle: saline with Tween-80) 95 % of control; under setting [1], 97 % of control; under setting [15], 104 % of control.
`CCCCCCCCCCCCCCNC(=O)Nc1ccc(Cl)c(Cl)c1`: the T/C under setting [16] is 95 % of control, the T/C under setting [17] is 92 % of control and the T/C under setting [18] was 95 % of control.
With `CC(=O)N1C(=O)NC(=O)C1(C)c1ccco1` (centres undefined), the T/C was 103 % of control under setting [1]; 94 % of control under setting [15]; 100 % of control under setting [2]; 97 % of control (dose: 200.0 mg/kg/injection, schedule: Q04DX003 (ip), vehicle: saline with Tween-80); 97 % of control under setting [12]; 105 % of control (dose: 400.0 mg/kg/injection, schedule: Q04DX003 (ip), vehicle: saline with Tween-80).
On to `O=S(=O)(c1cc(Cl)c(O)c(Cl)c1)c1cc(Cl)c(O)c(Cl)c1`, for which the T/C is, setting by setting: under setting [13], 92 % of control; under setting [14], 96 % of control; under setting [6], 95 % of control and 109 % of control.
Take `CCOC(=O)c1nnn(-c2cccnc2)c1-c1ccc([N+](=O)[O-])cc1`: the T/C is 111 % of control (dose: 100.0 mg/kg/injection, schedule: Q04DX002 (ip), vehicle: Klucel (hydroxypropylcellulose) (HPC)); 101 % of control (dose: 200.0 mg/kg/injection, schedule: Q04DX002 (ip), vehicle: Klucel (hydroxypropylcellulose) (HPC)); 105 % of control (dose: 400.0 mg/kg/injection, schedule: Q04DX002 (ip), vehicle: Klucel (hydroxypropylcellulose) (HPC)).
As to `O=S1(=O)CCCCC1c1ccccc1` (centres undefined), the T/C is, setting by setting: under setting [16], 87 % of control; (dose: 100.0 mg/kg/injection, schedule: Q01DX009 (ip), vehicle: saline) 98 % of control; under setting [3], 122 % of control; under setting [17], 95 % of control; (dose: 200.0 mg/kg/injection, schedule: Q01DX009 (ip), vehicle: saline) 87 % of control; under setting [4], 97 % of control. The T/C under setting [18] is 93 % of control and the T/C under setting [5] is 98 % of control.
Turning to `O=C(O)CSCc1ccc([N+](=O)[O-])cc1`, the T/C is 100 % of control under setting [9], 100 % of control under setting [10] and 100 % of control under setting [11].
As to `CCOC(=O)CCC(N)C(=O)O` (centres undefined), the T/C by setting is: (dose: 100.0 mg/kg/injection, schedule: Q04DX002 (ip), vehicle: saline) 110 % of control; (dose: 200.0 mg/kg/injection, schedule: Q04DX002 (ip), vehicle: saline) 106 % of control; (dose: 400.0 mg/kg/injection, schedule: Q04DX002 (ip), vehicle: saline) 102 % of control.
With `C/C(=N/NC(=S)Nc1cc(I)ccc1C)c1cc(C)ccc1O`, the T/C is 97 % of control (dose: 12.5 mg/kg/injection, schedule: Q04DX002 (ip), vehicle: Klucel (hydroxypropylcellulose) (HPC)); 102 % of control (dose: 25.0 mg/kg/injection, schedule: Q04DX002 (ip), vehicle: Klucel (hydroxypropylcellulose) (HPC)); 94 % of control (dose: 50.0 mg/kg/injection, schedule: Q04DX002 (ip), vehicle: Klucel (hydroxypropylcellulose) (HPC)).
